Reference: the SangsterLogP compilation

assay: not given; conditions: pH 3.5

Row | logD | SMILES
1 | 3.54 | COc1cccc(NC(=S)c2ccc(O)cc2O)c1

assay: method code SF-AS, from DOI: 10.1002/qsar.200430865; conditions: pH 3.5

Row | logD | SMILES
2 | 2.92 | COC(=O)c1ccccc1NC(=S)c1ccc(O)cc1O
3 | 3.54 | Oc1ccc(C(=S)Nc2ccc(F)cc2F)c(O)c1
4 | 2.36 | CC(=O)c1cccc(NC(=S)c2ccc(O)cc2O)c1
5 | 3.49 | CCOc1ccc(NC(=S)c2ccc(O)cc2O)cc1
6 | 4.26 | Oc1ccc(C(=S)Nc2cccc(C(F)(F)F)c2)c(O)c1
7 | 3.58 | Oc1ccc(C(=S)Nc2cc(Cl)ccc2O)c(O)c1
8 | 4.43 | Oc1ccc(C(=S)Nc2ccc(Cl)c(F)c2)c(O)c1
9 | 3.46 | Oc1ccc(C(=S)Nc2cccc(Br)c2)c(O)c1
10 | 3.8 | CCOc1ccccc1NC(=S)c1ccc(O)cc1O
11 | 2.41 | N#Cc1ccc(NC(=S)c2ccc(O)cc2O)cc1

Second part, the compound before the results:

Row | SMILES | logD
12 | Oc1ccc(C(=S)Nc2ccccc2F)c(O)c1 | 3.36
13 | Oc1ccc(C(=S)Nc2cc(Cl)c(Cl)cc2Cl)c(O)c1 | 4.92
14 | Oc1ccc(C(=S)Nc2cccc(F)c2)c(O)c1 | 3.41
15 | Oc1ccc(C(=S)Nc2cccc(Cl)c2Cl)c(O)c1 | 4.02
16 | Oc1ccc(C(=S)Nc2ccc(Cl)cc2Cl)c(O)c1 | 4.26
17 | Oc1ccc(C(=S)Nc2ccc(Br)cc2)c(O)c1 | 4.02
18 | Oc1ccc(C(=S)Nc2cccc(Cl)c2)c(O)c1 | 3.9
